Results from ChEMBL document CHEMBL1149476, “Structure-activity relationship study of 9-aminoacridine compounds in scrapie-infected neuroblastoma cells” (Bioorg Med Chem Lett, 2006).

Legend:
ScN2a [1] = assay: Cytotoxicity against mouse ScN2a cell line relative to control; format: functional; conditions: read-out: LD50 (the source's name)
ScN2a [2] = assay: Inhibition of PrPSc accumulation in mouse ScN2a cell line relative to control; format: functional, cell-based
[3] = Therapeutic index, LD50 for ScN2a cells/EC50 for PrPSc accumulation in ScN2a cells; format: cell-based; conditions: mouse, read-out: Ratio LD50/EC50
HEK293 = assay: Cytotoxicity against HEK293 cells relative to control; format: functional; conditions: Homo sapiens, read-out: LD50 (the source's name)
HepG2 = assay: Cytotoxicity against HepG2 cells relative to control; format: functional; conditions: Homo sapiens, read-out: LD50 (the source's name)

Row | SMILES | CC50 (ScN2a [1]) [µM] | EC50 (ScN2a [2]) [µM] | selectivity ratio [3] | CC50 (HEK293) [µM] | CC50 (HepG2) [µM]
1 | CCCN(CC)CCCNc1c2ccc(OC)cc2nc2ccc(C(F)(F)F)cc12 | 7.6 | 0.8 | 9.8 | 14.6 | 16.5
2 | CCCN(CCC)CCCNc1c2ccc(OC)cc2nc2c(C)cccc12 | 1.4 | 1 | 1.3 | 0.7 | 0.7
3 | CCCN(CCCNc1c2ccc(OC)cc2nc2ccc(C(F)(F)F)cc12)Cc1ccccc1 | 18.3 | 7.1 | 2.6 | 22.4 | > 25
4 | CCN(CCCNc1c2ccc(OC)cc2nc2c(C)c(F)ccc12)CC(C)C | 0.6 |  |  | 0.7 | 0.6
5 | CCN(CC)CCCC(C)Nc1c2ccc(Cl)cc2nc2ccc(OC)cc12 (stereo unspecified) [QUINACRINE] | 9.6 | 0.5 |  | 7.6 | 7.9
6 | CCCN(CC)CCCNc1c2ccc(OC)cc2nc2c(C)c(F)ccc12 | 0.6 |  |  | 0.8 | 0.7
7 | CCCN(CCC)CCCNc1c2ccc(OC)cc2nc2ccc(Cl)cc12 | 6 | 0.4 | 15.8 | 10.7 | 13.8
8 | CCCN(CCC)CCCNc1c2ccc(Cl)cc2nc2ccc(OC)cc12 | 6.4 | 0.6 | 10.9 |  | 
9 | CCN(CCCNc1c2ccc(OC)cc2nc2ccc(C(F)(F)F)cc12)Cc1ccccc1O | 13 | 3.9 | 2.6 | 23.1 | > 25
10 | CCCN(CC)CCCNc1c2ccc(OC)cc2nc2ccc(Cl)cc12 | 8.5 | 0.6 | 13.6 | 4.4 | 6.9
11 | CCCN(CCC)CCCNc1c2ccc(OC)cc2nc2ccc(C(F)(F)F)cc12 | 11.7 | 0.4 | 28.6 | 16.4 | 18.1
12 | CCN(CC)CCCC(C)Nc1c2ccc(OC)cc2nc2ccc(Cl)cc12 (stereo unspecified) | 17.4 | 0.7 | 23.3 |  | 
13 | CCCN(CCCNc1c2ccc(OC)cc2nc2c(C)cccc12)CC(C)C | 1.3 | 1 | 1.3 | 1.4 | 0.7
